Measured values: ChEMBL document CHEMBL5465560, “Selectivity Literature for EUbOPEN Chemogenomic Library” (2024)
Each block holds one molecule with its values, some of them ahead of it.

Experiments:
[1] = biological target: T1, Serine/threonine-protein kinase LATS1 (Homo sapiens) (UniProt O95835); assay: Selectivity interaction (ActivX KiNativ screen (kinase selectivity in THP-1 cell lysates)) EUB0000639a LATS1; format: subcellular; details: lysate, at 5 µM
T1 sequence (whole entry): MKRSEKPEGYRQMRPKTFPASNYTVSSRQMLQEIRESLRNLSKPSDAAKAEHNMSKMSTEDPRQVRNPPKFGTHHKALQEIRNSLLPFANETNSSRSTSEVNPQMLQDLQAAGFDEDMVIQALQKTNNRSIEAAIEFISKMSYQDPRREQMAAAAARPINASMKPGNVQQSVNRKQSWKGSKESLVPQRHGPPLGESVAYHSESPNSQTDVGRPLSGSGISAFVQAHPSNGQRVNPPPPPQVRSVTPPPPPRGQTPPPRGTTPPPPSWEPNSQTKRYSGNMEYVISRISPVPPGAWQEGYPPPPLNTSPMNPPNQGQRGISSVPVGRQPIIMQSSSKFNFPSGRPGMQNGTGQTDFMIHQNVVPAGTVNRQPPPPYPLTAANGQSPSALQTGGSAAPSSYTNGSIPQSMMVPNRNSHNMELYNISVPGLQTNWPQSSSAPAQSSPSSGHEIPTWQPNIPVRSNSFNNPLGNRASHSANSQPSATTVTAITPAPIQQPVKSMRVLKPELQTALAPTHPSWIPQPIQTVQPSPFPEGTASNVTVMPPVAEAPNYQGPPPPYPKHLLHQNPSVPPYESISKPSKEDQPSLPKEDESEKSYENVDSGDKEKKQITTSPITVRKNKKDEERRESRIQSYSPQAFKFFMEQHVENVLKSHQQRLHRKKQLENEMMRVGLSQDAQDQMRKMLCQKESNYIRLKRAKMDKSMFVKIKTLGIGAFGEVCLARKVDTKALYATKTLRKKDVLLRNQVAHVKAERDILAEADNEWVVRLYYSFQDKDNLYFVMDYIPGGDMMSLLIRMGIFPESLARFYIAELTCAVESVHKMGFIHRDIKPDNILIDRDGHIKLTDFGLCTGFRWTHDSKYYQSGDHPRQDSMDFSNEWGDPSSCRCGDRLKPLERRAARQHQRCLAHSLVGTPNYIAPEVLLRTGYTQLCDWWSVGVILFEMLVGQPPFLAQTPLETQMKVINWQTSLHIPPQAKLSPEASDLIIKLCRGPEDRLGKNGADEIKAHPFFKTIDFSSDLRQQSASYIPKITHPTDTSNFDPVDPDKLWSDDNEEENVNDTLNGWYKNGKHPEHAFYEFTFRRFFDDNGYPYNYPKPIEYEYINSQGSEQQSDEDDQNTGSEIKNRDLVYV

[2] = biological target: Activated CDC42 kinase 1 (Homo sapiens, UniProt Q07912); assay: Selectivity interaction (Kinase panel (Invitrogen)) EUB0000639a TNK2; details: at 200 nM
Sequence of Activated CDC42 kinase 1 (Q07912 whole entry, looked up): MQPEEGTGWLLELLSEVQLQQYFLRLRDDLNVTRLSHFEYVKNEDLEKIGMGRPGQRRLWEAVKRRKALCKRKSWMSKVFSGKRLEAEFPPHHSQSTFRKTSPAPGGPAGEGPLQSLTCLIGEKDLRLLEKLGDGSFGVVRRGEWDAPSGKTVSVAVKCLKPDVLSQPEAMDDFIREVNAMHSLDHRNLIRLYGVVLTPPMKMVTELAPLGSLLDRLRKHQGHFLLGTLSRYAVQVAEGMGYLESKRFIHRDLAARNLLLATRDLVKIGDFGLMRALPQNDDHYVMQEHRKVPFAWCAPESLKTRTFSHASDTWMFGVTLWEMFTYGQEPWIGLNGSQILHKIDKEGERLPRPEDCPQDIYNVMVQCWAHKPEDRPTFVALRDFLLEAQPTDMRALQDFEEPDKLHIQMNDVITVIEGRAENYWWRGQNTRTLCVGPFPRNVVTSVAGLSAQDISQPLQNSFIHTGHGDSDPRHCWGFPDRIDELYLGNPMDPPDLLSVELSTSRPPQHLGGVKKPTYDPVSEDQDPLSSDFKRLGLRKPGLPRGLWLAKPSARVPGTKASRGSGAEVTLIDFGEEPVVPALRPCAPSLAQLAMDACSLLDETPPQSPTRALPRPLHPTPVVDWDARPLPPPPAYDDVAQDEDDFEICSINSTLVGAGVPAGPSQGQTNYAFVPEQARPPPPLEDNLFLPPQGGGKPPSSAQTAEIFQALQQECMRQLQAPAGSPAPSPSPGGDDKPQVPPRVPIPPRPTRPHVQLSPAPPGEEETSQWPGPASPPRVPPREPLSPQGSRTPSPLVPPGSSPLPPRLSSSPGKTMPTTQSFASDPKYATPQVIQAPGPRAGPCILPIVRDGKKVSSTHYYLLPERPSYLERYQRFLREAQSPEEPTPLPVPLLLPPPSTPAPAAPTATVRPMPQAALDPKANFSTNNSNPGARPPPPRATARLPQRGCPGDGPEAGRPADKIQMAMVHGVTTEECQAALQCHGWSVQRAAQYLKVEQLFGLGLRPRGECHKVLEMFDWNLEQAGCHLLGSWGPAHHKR

[3] = biological target: T2, Dual specificity mitogen-activated protein kinase kinase 7 (Homo sapiens) (UniProt O14733); assay: Selectivity interaction (KinomeScan (DiscoverX)) EUB0000695a MAP2K7; details: at 100 nM
T2 sequence (whole entry): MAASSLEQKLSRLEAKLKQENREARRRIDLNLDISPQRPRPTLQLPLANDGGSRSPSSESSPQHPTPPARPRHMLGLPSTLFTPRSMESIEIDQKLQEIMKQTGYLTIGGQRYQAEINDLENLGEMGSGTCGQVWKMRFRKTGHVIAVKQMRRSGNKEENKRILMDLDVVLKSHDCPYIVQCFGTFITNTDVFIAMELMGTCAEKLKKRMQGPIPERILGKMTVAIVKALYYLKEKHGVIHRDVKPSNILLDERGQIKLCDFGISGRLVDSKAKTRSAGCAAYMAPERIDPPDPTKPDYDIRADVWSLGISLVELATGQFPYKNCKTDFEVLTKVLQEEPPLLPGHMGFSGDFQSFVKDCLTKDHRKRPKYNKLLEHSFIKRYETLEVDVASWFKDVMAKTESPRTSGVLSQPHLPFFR

[4] = biological target: hERG (KCNH2) (Homo sapiens, UniProt Q12809); assay: Selectivity interaction (Panel of kinases, GPCRs, ion channels and transporters (enzymatic assay)) EUB0000223bCl KCNH2
[5] = biological target: Mitogen-activated protein kinase kinase kinase 20 (Homo sapiens) (UniProt Q9NYL2); assay: Selectivity interaction (KinomeScan (DiscoverX)) EUB0001079a MAP3K20; details: at 1 µM
Sequence of Mitogen-activated protein kinase kinase kinase 20 (Homo sapiens) (Q9NYL2 2-800 limits assumed): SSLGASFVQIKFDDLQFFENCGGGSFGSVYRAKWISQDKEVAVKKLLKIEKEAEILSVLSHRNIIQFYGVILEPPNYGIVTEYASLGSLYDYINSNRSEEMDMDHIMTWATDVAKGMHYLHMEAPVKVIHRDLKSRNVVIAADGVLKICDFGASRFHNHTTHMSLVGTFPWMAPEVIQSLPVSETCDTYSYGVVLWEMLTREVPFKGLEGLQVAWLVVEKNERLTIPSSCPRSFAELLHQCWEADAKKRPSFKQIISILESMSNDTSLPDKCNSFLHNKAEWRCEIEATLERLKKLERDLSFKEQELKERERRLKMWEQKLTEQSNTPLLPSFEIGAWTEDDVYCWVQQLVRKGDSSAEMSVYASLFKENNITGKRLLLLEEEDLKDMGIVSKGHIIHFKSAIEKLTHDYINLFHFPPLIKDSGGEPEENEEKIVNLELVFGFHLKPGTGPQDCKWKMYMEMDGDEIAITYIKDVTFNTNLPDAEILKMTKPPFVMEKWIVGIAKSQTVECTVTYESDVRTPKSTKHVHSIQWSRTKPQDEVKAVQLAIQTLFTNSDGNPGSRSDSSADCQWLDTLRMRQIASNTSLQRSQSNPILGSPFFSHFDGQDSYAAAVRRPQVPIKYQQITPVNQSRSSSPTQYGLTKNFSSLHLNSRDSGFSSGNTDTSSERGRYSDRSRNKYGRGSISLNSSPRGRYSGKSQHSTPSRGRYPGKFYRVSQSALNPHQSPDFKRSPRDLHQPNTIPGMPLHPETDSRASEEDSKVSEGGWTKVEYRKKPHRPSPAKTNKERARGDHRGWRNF

[6] = biological target: DNA (cytosine-5)-methyltransferase 3A (Homo sapiens) (UniProt Q9Y6K1); assay: Selectivity interaction (Transferase panel (protein, RNA, and DNA methyltransferases. and EP300 (acetyltransferase))) EUB0000270b DNMT3A
Sequence of DNA (cytosine-5)-methyltransferase 3A (Homo sapiens) (Q9Y6K1 whole entry, looked up): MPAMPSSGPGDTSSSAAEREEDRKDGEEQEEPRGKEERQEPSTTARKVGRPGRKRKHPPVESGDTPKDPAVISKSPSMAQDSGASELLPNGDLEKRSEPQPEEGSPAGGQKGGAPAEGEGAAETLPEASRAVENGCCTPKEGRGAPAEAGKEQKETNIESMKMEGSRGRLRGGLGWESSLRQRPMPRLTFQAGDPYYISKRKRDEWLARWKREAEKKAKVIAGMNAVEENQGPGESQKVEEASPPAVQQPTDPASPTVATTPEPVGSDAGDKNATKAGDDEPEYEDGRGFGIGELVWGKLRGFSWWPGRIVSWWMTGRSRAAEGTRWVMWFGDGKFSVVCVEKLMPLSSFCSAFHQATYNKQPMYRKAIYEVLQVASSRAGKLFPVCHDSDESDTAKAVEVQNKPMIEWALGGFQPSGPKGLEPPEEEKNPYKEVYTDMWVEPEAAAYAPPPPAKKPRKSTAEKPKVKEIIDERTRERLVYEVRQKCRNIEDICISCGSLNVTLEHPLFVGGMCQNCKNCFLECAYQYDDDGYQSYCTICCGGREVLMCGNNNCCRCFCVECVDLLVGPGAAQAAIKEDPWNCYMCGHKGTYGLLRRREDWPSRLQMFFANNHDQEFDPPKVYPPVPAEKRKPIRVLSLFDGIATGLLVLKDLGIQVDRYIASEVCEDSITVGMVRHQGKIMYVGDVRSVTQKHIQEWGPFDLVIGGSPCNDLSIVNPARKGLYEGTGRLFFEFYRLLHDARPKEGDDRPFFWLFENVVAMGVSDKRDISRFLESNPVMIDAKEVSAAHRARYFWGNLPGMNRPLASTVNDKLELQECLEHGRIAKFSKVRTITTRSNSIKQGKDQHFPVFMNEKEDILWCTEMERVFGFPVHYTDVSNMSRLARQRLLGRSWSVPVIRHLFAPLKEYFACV

[7] = biological target: T3, Rhodopsin kinase GRK7 (Homo sapiens) (UniProt Q8WTQ7); assay: Selectivity interaction (KinomeScan (DiscoverX)) EUB0000229b GRK7; details: at 10 µM
T3 sequence (whole entry): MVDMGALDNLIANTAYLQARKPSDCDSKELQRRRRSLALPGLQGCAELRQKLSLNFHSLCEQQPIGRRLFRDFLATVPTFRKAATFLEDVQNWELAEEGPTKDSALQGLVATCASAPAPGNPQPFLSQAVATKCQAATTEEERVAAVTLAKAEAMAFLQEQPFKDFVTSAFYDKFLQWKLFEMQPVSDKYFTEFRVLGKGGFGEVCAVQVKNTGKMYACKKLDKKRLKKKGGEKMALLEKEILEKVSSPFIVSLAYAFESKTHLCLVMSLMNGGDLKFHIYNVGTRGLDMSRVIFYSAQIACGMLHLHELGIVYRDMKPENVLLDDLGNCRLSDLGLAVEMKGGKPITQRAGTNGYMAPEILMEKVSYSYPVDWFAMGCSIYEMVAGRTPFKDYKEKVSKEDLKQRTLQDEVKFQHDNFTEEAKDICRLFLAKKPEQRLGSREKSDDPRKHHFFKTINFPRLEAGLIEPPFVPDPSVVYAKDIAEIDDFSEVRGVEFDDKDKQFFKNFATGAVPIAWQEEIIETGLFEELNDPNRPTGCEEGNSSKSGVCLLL

[8] = biological target: Serine/threonine-protein kinase 33 (Homo sapiens) (UniProt Q9BYT3); details: at 10 µM
Sequence of Serine/threonine-protein kinase 33 (Homo sapiens) (Q9BYT3 whole entry, looked up): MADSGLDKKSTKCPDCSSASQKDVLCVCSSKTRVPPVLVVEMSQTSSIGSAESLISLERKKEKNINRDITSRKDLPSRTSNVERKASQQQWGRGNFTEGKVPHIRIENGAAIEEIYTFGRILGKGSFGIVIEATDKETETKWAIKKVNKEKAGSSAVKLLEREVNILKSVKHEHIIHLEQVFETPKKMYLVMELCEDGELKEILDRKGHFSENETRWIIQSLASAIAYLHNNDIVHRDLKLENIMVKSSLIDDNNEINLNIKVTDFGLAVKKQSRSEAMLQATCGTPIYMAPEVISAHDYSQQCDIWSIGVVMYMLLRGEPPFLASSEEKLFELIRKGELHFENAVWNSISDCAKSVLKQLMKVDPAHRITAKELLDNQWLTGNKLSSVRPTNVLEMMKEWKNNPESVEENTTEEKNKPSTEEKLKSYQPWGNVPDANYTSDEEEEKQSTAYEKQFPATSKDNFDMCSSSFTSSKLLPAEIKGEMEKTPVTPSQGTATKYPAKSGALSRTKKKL

[9] = tested on: Tyrosine-protein kinase ABL1 (Homo sapiens), P00519 [F317L]; details: at 10 µM
Sequence of Tyrosine-protein kinase ABL1 (Homo sapiens), P00519 [F317L] (P00519 whole entry F317L): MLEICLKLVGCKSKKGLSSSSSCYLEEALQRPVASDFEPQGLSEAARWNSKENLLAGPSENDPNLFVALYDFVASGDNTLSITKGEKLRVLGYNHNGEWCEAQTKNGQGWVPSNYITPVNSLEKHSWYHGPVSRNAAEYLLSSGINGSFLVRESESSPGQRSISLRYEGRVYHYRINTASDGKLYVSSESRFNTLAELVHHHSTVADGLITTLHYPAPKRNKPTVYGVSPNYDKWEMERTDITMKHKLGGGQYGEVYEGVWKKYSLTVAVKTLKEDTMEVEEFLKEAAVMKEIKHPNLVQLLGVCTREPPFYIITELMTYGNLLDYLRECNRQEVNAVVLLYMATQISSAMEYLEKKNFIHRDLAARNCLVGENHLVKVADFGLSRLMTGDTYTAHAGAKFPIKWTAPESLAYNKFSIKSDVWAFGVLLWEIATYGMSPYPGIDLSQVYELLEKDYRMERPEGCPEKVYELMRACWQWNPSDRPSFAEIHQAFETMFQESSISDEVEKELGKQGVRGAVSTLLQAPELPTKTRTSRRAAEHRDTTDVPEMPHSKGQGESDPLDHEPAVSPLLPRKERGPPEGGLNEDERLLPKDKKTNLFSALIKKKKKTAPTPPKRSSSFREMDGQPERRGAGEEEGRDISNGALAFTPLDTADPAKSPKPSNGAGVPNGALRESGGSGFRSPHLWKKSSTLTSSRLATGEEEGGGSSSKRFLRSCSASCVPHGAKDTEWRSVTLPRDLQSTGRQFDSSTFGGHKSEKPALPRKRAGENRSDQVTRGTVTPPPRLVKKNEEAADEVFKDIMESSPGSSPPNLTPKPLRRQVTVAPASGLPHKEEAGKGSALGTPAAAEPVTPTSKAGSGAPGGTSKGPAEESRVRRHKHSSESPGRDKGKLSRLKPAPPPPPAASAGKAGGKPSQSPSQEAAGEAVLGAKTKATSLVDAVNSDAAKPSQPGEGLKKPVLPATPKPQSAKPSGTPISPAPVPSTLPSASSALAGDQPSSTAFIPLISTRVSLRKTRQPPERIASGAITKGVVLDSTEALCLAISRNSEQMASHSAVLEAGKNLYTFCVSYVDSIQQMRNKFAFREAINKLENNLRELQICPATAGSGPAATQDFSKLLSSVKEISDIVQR

- % of inhibition [1]: -31.2%
- % of inhibition [2]: -1.67%
SMILES: CC[C@@H]1[C@H](F)C(=O)N[C@@H]1COc1nccc2cc(C(N)=O)c(OC)cc12 [ZIMLOVISERTIB]

SMILES: Cc1cc(F)c(C(=O)Nc2cccc(-c3nncn3C(C)C)n2)cc1-n1cnc(C2CC2)c1
- % of control [3]: 95%

SMILES: COc1cc(C(=O)N2CC[C@@H](O)[C@@H](N)C2)cc2nc(-c3cc4ccccc4n3CC3CC3)n(C)c12
- XC50 [4]: 31.6 µM

SMILES: Nc1cnc(N2CCc3cc(S(=O)(=O)Nc4c(F)cc(Cl)cc4F)cc(N4CCCC4=O)c32)nc1 [TP-020n]
- % of control [5]: 95%

- % activity ([6]; at 1 µM): > 90%
- % activity ([6]; at 10 µM): > 80%
SMILES: Cc1cc(CN)cc(C)c1-c1ncn(C)c1-c1cncn1C

SMILES: COc1cc(N(C)c2ccnc3ccc(C(F)(F)F)cc23)cc(OC)c1OC
- % binding [7]: 69%

SMILES: Cc1cc([C@@H](C)Nc2ccccc2C(=O)O)c2nc(N3CCOCC3)cc(=O)n2c1 [AZD-6482]
- % of control [8]: 100%
- % of control [9]: 87%
